The subject of one experiment is plants. The settings on record: cited from earlier work.
Experiment [1] deals with BIN1. Nature of the experiment: BL induced BIN1 phosphorylation in seedlings (mobility shift on SDS-PAGE, immunoblot). Format: in vivo, Arabidopsis. The conditions noted are these: BIN1-6 and BIN1117 mutant seedlings, 1 μM BL for 1 hour.
Description: (§3) Proteins were analyzed by 4% SDS-PAGE, blotted, and probed with anti-BIN1N antibody. b.
(§4) Samples were analyzed by SDS-PAGE using 4% gels and western blotting as described above. […] For phosphatase treatment, SDS was removed from protein samples using the SDS-OUT kit (Pierce), and the proteins were then treated with alkaline phosphatase (Boehringer Mannheim) and protein phosphatase I (PPI, New England Biolab) under conditions recommended by the manufacturer and as described.
Experiment [2] has as its target T1, BIN1 (Arabidopsis thaliana, UniProt O22476).
T1 sequence (O22476 24-1196): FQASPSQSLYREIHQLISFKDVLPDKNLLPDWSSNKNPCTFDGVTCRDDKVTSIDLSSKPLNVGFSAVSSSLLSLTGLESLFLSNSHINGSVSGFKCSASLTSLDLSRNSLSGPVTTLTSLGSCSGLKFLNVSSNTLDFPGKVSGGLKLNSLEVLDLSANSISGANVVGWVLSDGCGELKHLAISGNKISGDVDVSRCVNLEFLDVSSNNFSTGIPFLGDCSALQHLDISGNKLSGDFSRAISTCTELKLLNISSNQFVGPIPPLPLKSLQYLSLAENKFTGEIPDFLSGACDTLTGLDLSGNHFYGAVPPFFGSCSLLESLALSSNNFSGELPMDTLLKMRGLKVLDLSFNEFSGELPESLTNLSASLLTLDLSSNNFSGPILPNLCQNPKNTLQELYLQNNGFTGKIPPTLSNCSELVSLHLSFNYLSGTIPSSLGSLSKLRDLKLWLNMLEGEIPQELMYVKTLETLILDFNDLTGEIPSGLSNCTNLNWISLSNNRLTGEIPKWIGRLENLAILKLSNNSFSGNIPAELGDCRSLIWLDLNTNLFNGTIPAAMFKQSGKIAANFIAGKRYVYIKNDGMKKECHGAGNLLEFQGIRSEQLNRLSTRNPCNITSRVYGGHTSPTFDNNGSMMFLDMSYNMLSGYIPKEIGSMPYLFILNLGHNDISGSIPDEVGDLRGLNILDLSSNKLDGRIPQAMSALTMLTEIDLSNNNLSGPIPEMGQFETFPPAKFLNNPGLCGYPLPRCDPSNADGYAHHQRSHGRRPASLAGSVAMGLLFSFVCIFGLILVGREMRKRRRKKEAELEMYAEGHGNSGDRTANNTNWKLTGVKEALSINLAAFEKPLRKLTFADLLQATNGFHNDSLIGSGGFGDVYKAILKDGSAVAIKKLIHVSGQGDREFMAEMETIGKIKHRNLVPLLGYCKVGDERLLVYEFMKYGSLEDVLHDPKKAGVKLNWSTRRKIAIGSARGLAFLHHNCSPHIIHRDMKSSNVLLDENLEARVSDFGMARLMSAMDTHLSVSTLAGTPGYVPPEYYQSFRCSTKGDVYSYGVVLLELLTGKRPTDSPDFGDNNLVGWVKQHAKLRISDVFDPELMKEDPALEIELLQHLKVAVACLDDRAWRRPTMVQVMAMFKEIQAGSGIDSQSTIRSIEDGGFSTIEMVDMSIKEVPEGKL
The settings on record: membrane fractions of wild-type plants.

For experiment [3], the target named is T1, BIN1. Nature of the experiment: Binding kinetic studies of specific BL binding. Set-up: from tissue; host or cells: wild-type Arabidopsis seedlings (microsomal fractions in A2; whole seedlings in A10). From the text:
(§1) Tetrahedron Lett. 39, 7525-7528 (1998). […] Science 288, 2360-3 (2000).

For experiment [4], the target named is T1, BIN1. The experiment is described as follows: BL induced BIN1 phosphorylation in seedlings (mobility shift on SDS-PAGE, immunoblot). Format: in vivo. Also on record: from tissue; host or cells: wild-type Arabidopsis seedlings (microsomal fractions in A2; whole seedlings in A10). The conditions noted are these: det2 BL biosynthetic mutant seedlings, 1 μM BL for 1 hour. In general terms: In western blotting, separated proteins are transferred to a membrane and probed.
Description: as §3, §4

Experiment [5] deals with T2, BIN1-GFP (Arabidopsis thaliana, UniProt O22476). The conditions noted are these: membrane fractions of BIN1-GFP transgenic plants.
T2 sequence (O22476 with tags, fused parts or gaps): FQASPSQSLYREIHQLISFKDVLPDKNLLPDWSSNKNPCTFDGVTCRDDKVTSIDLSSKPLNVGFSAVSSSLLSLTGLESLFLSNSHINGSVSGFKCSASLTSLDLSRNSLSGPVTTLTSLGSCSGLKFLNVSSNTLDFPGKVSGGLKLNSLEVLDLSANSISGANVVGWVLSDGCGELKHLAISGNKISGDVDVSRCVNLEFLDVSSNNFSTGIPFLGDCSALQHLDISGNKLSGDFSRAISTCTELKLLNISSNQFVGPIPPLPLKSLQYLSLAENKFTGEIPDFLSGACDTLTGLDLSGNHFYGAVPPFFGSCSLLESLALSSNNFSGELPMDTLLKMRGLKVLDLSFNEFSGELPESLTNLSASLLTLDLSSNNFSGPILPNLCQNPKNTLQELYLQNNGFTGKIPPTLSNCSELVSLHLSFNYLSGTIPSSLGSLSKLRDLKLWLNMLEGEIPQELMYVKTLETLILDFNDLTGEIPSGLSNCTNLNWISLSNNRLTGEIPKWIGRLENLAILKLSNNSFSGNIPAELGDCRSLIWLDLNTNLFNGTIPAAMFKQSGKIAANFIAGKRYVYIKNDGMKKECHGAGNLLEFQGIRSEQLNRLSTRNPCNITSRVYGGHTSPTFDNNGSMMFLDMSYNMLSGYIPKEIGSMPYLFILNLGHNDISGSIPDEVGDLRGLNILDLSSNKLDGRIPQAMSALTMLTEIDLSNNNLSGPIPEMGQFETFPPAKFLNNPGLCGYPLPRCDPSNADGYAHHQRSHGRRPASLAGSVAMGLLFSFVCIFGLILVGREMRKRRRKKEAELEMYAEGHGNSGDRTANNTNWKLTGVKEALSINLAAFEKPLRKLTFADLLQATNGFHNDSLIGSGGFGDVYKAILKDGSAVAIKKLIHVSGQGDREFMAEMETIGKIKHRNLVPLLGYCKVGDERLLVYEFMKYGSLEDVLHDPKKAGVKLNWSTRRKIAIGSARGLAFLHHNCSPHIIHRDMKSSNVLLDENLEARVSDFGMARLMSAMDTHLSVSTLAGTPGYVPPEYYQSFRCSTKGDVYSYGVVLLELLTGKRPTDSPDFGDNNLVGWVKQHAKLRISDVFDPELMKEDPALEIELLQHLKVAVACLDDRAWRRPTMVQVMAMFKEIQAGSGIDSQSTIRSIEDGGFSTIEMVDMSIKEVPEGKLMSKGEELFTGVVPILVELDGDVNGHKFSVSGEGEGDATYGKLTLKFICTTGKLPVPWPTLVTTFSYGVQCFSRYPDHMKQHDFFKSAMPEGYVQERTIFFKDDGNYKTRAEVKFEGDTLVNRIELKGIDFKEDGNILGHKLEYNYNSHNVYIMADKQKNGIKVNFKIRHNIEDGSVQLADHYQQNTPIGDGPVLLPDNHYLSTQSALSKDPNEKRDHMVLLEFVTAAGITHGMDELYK
Experiment [6] concerns the target T3, BIN1-116, Q583-stop (70-aa island) (Arabidopsis thaliana, UniProt O22476).
T3 construct: microsomal fractions of wild type (WT), det2, BIN1-6, BIN1-116, BIN1-104, and BIN1-102 mutant plants; from tissue; host or cells: microsomal fractions of BIN1-116 mutant Arabidopsis plants
T3 sequence (O22476 24-582 limits assumed): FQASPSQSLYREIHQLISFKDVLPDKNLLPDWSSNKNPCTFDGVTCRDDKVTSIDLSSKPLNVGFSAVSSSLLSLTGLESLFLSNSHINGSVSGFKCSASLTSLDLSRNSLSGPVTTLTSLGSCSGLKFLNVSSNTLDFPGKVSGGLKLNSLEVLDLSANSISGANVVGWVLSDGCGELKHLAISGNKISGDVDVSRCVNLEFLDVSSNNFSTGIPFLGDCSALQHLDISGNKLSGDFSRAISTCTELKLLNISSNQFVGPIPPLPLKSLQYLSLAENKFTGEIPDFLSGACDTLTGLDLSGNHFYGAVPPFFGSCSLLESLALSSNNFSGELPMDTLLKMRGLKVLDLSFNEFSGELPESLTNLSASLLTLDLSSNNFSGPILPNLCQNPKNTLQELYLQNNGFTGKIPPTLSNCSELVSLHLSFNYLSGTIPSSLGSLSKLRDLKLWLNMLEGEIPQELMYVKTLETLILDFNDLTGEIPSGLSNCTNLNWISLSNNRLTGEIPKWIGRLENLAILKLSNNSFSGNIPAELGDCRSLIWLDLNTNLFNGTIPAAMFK
Format: binding. The conditions noted are these: BIN1-116 mutant, compared with wild type.
Excerpt: (§2) Mutations in large numbers of BIN1 alleles implicate the functional importance of the cytoplasmic kinase domain and the 70-aa island of BIN1's extracellular domain.
as §1

The target in experiment [7] is T4, BIN1-6, G644-D (70-aa island) (Arabidopsis thaliana, UniProt O22476, G644D).
T4 construct: microsomal fractions of wild type (WT), det2, BIN1-6, BIN1-116, BIN1-104, and BIN1-102 mutant plants; from tissue; host or cells: microsomal fractions of BIN1-6 mutant Arabidopsis plants
T4 sequence (O22476 24-1196 G644D): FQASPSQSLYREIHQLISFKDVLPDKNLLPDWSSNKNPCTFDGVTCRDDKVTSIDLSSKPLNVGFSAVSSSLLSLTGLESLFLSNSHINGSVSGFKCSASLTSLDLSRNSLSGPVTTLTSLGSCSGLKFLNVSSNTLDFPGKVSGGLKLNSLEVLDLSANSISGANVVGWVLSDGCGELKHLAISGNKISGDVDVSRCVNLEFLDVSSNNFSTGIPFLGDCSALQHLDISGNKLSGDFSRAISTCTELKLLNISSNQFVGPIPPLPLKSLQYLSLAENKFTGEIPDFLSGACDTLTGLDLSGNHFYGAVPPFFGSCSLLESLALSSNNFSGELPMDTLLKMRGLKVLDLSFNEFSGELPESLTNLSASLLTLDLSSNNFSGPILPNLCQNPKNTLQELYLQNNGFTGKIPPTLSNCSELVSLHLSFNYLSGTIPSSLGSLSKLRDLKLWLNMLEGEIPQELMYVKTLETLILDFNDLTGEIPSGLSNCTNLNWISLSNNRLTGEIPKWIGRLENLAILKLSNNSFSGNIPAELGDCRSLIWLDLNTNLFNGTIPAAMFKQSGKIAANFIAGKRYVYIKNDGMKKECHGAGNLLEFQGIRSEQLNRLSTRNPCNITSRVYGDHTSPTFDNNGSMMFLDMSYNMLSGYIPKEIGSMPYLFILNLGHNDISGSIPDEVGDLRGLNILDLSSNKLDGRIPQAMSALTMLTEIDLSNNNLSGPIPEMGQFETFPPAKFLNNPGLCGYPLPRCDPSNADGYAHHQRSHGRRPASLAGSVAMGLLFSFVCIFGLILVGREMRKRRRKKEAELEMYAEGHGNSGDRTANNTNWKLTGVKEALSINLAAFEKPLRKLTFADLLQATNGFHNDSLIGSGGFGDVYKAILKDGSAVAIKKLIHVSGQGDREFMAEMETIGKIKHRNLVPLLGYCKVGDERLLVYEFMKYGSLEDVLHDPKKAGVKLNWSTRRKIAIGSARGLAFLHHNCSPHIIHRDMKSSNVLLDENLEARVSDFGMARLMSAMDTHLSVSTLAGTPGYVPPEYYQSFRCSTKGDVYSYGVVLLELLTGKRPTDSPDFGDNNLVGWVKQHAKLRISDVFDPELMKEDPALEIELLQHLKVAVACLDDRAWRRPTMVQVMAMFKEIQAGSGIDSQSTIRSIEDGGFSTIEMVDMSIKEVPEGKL
Format: binding. The settings on record: BIN1-6 mutant, compared with wild type.
Excerpt: as §2, §1

The target in experiment [8] is T2, BIN1-GFP. It is filed as binding. Set-up: expressed in transfected cells; host or cells: transgenic Arabidopsis plants (microsomal fractions, or anti-GFP immunoprecipitate from extracts).

Read-outs that look alike come from different tables or passages of the source.

This is an account of results in patent US6765085B2, “Receptor kinase, BIN1” (The Salk Institute for Biological Studies, priority 1997, dated 2004).

With 2,3,22,23-O-tetramethylBL [Me-BL], the “biological activity in plants” value in the experiment on plants is on record as “lack of biological activity”.

Turning to `CC(C)[C@H](C)[C@@H](O)[C@H](O)[C@@H](C)[C@H]1CC[C@H]2[C@@H]3COC(=O)[C@H]4C[C@H](O)[C@H](O)C[C@]4(C)[C@H]3CC[C@]12C` [BL, brassinolide], the “BL-induced BIN1 phosphorylation” value with BIN1 [1] is recorded as “not”; at BIN1 [4], “also observed”. The “Bmax (BL binding sites)” value is 0.23 pmole mg^−1 membrane protein at BIN1 [2] and 2.66 pmole mg^−1 membrane protein on BIN1-GFP [5]. Besides, on BIN1 [3], the “time to 50% competition by unlabelled BL (reversibility of binding)” value was “less than 1 min”. Besides, the “time for specific BL binding to reach equilibrium” value at BIN1 [3] (incubation at 25° C.) is on record as ≤ 15 min. Also, the BL binding activity entry in [6] and in [7] was “greatly reduced” throughout.

As for `C[C@H]([C@H](O)CCC(C)(C)O)[C@H]1CC[C@@]2(O)C3=CC(=O)[C@@H]4C[C@@H](O)[C@@H](O)C[C@]4(C)[C@H]3CC[C@]12C` [ecdysone], the “biological activity in plants” value in the experiment on plants is on record as “lack of biological activity”. Further, at BIN1-GFP [8], the IC50 was > 10000 nM.

`CC(C)[C@H](C)[C@@H](O)[C@H](O)[C@@H](C)[C@H]1CC[C@H]2[C@@H]3CC(=O)[C@H]4C[C@H](O)[C@H](O)C[C@]4(C)[C@H]3CC[C@]12C` [castasterone]: the “activity in bioassays relative to BL” value in the experiment on plants (bioassays) was “about 5 times less active than BL”. Further, the “relative binding affinity (RBA, ratio between IC50 of a competitor and that of BL)” value at BIN1-GFP [8] (membrane fraction of BIN1-GFP plants) is on record as 4-5 times lower than BL. On BIN1-GFP [8] (read-out: 50% inhibition concentration, IC50, of [3H]-BL binding, membrane fraction of BIN1-GFP plants), the IC50 came to 340 nM.
